Data as given in patent US6737383B1, “Herbicidal oxadiazolidines” (priority 1999, dated 2004).

Assays:
[1] = test system: surinam grass; assay: Test B pre/postemergence surinam grass; type: in vivo, Brachiaria decumbens
Procedure, shortened: (§1)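 Test chemicals in a non-phytotoxic solvent mixture with surfactant were sprayed preemergence onto planted seeds and postemergence onto plants 2 to 18 cm tall (1- to 4-leaf stage). After twelve to sixteen days in a greenhouse, injury was visually rated against untreated controls from 0 (no effect) to 10 (complete control).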

[2] = test system: cocklebur; assay: Test B pre/postemergence cocklebur; type: in vivo, Xanthium strumarium
Procedure, shortened: as §1

[3] = test system: corn; assay: Test B pre/postemergence corn; type: in vivo, Zea mays
Procedure, shortened: as §1

[4] = test system: crabgrass; assay: Test B pre/postemergence crabgrass; type: in vivo, Digitaria sanguinalis
Procedure, shortened: as §1

[5] = test system: giant foxtail; assay: Test B pre/postemergence giant foxtail; type: in vivo, Setaria faberii
Procedure, shortened: as §1

[6] = test system: morningglory; assay: Test B pre/postemergence morningglory; type: in vivo, Ipomoea hederacea
Procedure, shortened: as §1

[7] = test system: pigweed; assay: Test B pre/postemergence pigweed; type: in vivo, Amaranthus retroflexus
Procedure, shortened: as §1

[8] = test system: rape; assay: Test B pre/postemergence rape; type: in vivo, Brassica napus
Procedure, shortened: as §1

[9] = test system: soybean; assay: Test B pre/postemergence soybean; type: in vivo, Glycine max
Procedure, shortened: as §1

[10] = test system: sugar beet; assay: Test B pre/postemergence sugar beet; type: in vivo, Beta vulgaris
Procedure, shortened: as §1

[11] = test system: wild oat; assay: Test B pre/postemergence wild oat; type: in vivo, Avena fatua
Procedure, shortened: as §1

[12] = test system: purple nutsedge; assay: Test B pre/postemergence purple nutsedge; type: in vivo, Cyperus rotundus
Procedure, shortened: as §1

[13] = test system: rice; assay: Test B flood test rice; type: in vivo, Oryza sativa
Procedure, shortened: (§2)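 Flood test on plants grown to the 2-leaf stage; treated plants kept in greenhouse twelve to sixteen days, then visually rated against controls on a 0 (no effect) to 10 (complete control) scale.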

[14] = test system: smallflower flatsedge; assay: Test B flood test smallflower flatsedge; type: in vivo, Cyperus difformis
Procedure, shortened: as §2

[15] = test system: duck salad; assay: Test B flood test duck salad; type: in vivo, Heteranthera limosa
Procedure, shortened: as §2

[16] = test system: bamyardgrass; assay: Test B flood test barnyardgrass; type: in vivo, Echinochloa crus-galli
Procedure, shortened: as §2

[17] = Postemergence, Rate 62 g/ha, scale 0 to 10, 0 is no effect, 10 is complete control
[18] = Postemergence, Rate 125 g/ha, scale of 0 to 10 where 0 is no effect and 10 is complete control
[19] = Postemergence, Rate 250 g/ha, scale of 0 to 10, 0 is no effect, 10 is complete control
[20] = Postemergence, Rate 500 g/ha, scale of 0 to 10 where 0 is no effect and 10 is complete control
[21] = Preemergence, Rate 62 g/ha, scale of 0 to 10 where 0 is no effect and 10 is complete control
[22] = Preemergence, Rate 125 g/ha, scale of 0 to 10 where 0 is no effect and 10 is complete control
[23] = Preemergence, Rate 250 g/ha, scale 0 to 10 (0 no effect, 10 complete control)
[24] = Preemergence, Rate 500 g/ha, scale of 0 to 10 where 0 is no effect and 10 is complete control
[25] = Rate 62 g/ha, flood test species, Pre-emergence, visual evaluation after twelve to sixteen days
[26] = Rate 125 g/ha, under heading Pre-emergence, flood test species, visual evaluation after twelve to sixteen days
[27] = Rate 250 g/ha, Pre-emergence (flood test species), scale 0 to 10, 0 is no effect, 10 is complete control
[28] = Rate 500 g/ha, Pre-emergence section of Table B, 0 to 10 scale (0 no effect, 10 complete control)

CC(C)N(C(=O)n1oc(=O)n(CCC(=O)N(C)C)c1=O)c1ccc(F)cc1 [Compound 638]
3: Plant response rating, Corn [3, 20] | Morningglory plant response rating [6, 19] | Soybean plant response rating [9, 19] | Plant response rating, Soybean [9, 23] | Plant response rating, Soybean [9, 24]
5: Plant response rating, Crabgrass [4, 18] | Plant response rating, Giant foxtail [5, 17] | Rape plant response rating [8, 22] | Plant response rating, Nutsedge [12, 18] | Nutsedge plant response rating [12, 22] | Plant response rating, Nutsedge [12, 23]
1: Plant response rating, Soybean [9, 17] | Plant response rating, Soybean [9, 18] | Plant response rating, Wild oats [11, 17] | Plant response rating, Wild oats [11, 18] | Wild oats plant response rating [11, 19]
2: Cocklebur plant response rating [2, 19] | Plant response rating, Corn [3, 18] | Corn plant response rating [3, 19] | Plant response rating, Crabgrass [4, 17] | Plant response rating, Morningglory [6, 18] | Plant response rating, Morningglory [6, 23]
6: B. signalgrass plant response rating [1, 19] | Plant response rating, B. signalgrass [1, 20] | Plant response rating, Giant foxtail [5, 18] | Sugarbeets plant response rating [10, 22] | Plant response rating, Sugarbeets [10, 23]
10: Plant response rating, Crabgrass [4, 24] | Giant foxtail plant response rating [5, 21] | Giant foxtail plant response rating [5, 22] | Plant response rating, Giant foxtail [5, 23] | Plant response rating, Giant foxtail [5, 24] | Redroot pigweed plant response rating [7, 22] | Plant response rating, Redroot pigweed [7, 23] | Plant response rating, Redroot pigweed [7, 24] | Plant response rating, Rape [8, 24] | Plant response rating, Sugarbeets [10, 24] | Plant response rating, Wild oats [11, 23] | Plant response rating, Wild oats [11, 24]
4: Plant response rating, B. signalgrass [1, 18] | B. signalgrass plant response rating [1, 21] | Plant response rating, Cocklebur [2, 20] | Plant response rating, Cocklebur [2, 23] | Wild oats plant response rating [11, 21] | Wild oats plant response rating [11, 22]
0: Plant response rating, B. signalgrass [1, 17] | Plant response rating, Cocklebur [2, 17] | Plant response rating, Cocklebur [2, 18] | Cocklebur plant response rating [2, 21] | Cocklebur plant response rating [2, 22] | Plant response rating, Corn [3, 17] | Corn plant response rating [3, 21] | Plant response rating, Morningglory [6, 17] | Morningglory plant response rating [6, 21] | Morningglory plant response rating [6, 22] | Plant response rating, Redroot pigweed [7, 17] | Plant response rating, Redroot pigweed [7, 18] | Redroot pigweed plant response rating [7, 19] | Plant response rating, Rape [8, 17] | Plant response rating, Rape [8, 18] | Rape plant response rating [8, 19] | Plant response rating, Rape [8, 20] | Rape plant response rating [8, 21] | Soybean plant response rating [9, 21] | Soybean plant response rating [9, 22] | Plant response rating, Sugarbeets [10, 17] | Plant response rating, Sugarbeets [10, 18] | Sugarbeets plant response rating [10, 19] | Sugarbeets plant response rating [10, 21] | Plant response rating, Nutsedge [12, 17] | Nutsedge plant response rating [12, 21] | Plant response rating, Rice (0 to 10 scale, 0 is no effect, 10 is complete control) [13, 25] | Rice plant response rating (0 to 10 scale, 0 is no effect, 10 is complete control) [13, 26] | Rice plant response rating [13, 27] | Rice plant response rating [13, 28] | Plant response rating, S. Flatsedge (0 to 10 scale, 0 is no effect, 10 is complete control) [14, 25] | S. Flatsedge plant response rating (0 to 10 scale, 0 is no effect, 10 is complete control) [14, 26] | S. Flatsedge plant response rating [14, 27] | S. Flatsedge plant response rating [14, 28] | Plant response rating, Ducksalad (0 to 10 scale, 0 is no effect, 10 is complete control) [15, 25] | Ducksalad plant response rating (0 to 10 scale, 0 is no effect, 10 is complete control) [15, 26] | Ducksalad plant response rating [15, 27] | Ducksalad plant response rating [15, 28] | Plant response rating, Barnyardgrass (0 to 10 scale, 0 is no effect, 10 is complete control) [16, 25] | Barnyardgrass plant response rating (0 to 10 scale, 0 is no effect, 10 is complete control) [16, 26] | Barnyardgrass plant response rating [16, 27] | Barnyardgrass plant response rating [16, 28]
8: Plant response rating, B. signalgrass [1, 23] | Plant response rating, B. signalgrass [1, 24] | Corn plant response rating [3, 22] | Plant response rating, Corn [3, 24] | Crabgrass plant response rating [4, 19] | Giant foxtail plant response rating [5, 19] | Plant response rating, Giant foxtail [5, 20] | Plant response rating, Rape [8, 23] | Plant response rating, Nutsedge [12, 24]
9: Plant response rating, Cocklebur [2, 24] | Plant response rating, Crabgrass [4, 20] | Crabgrass plant response rating [4, 21] | Crabgrass plant response rating [4, 22] | Plant response rating, Crabgrass [4, 23]
7: B. signalgrass plant response rating [1, 22] | Plant response rating, Morningglory [6, 20] | Plant response rating, Morningglory [6, 24] | Redroot pigweed plant response rating [7, 21] | Plant response rating, Nutsedge [12, 20]
